Results on 43 compounds are retold here after patent US6916812B2, “Alpha-aminoamide derivatives as melanocortin agonists” (Bristol-Myers Squibb Company, priority 2001, dated 2005).

The target in this assay is T1, cloned human MC4R (Homo sapiens, UniProt P32245).
T1 construct: made in house; host or cells: Hi5 insect cells (baculovirus infection); membrane preparation
As to the kind of experiment: Membrane binding assay: competitive inhibition of [125I]NDP-α-MSH binding. The conditions noted are these: for inhibition at 10 µM: read-out: Displacement Rate (%) (at 10 μM); for IC50: read-out: MC4R IC50. How it is done: Hi5 cells are infected using the following protocol: Cells at a density of 1×10^6 cells/mL are spun down at 1000 rpm (Beckman GS-6KR centrifuge) for 10 minutes. Cells are resuspended in 10% of their original volume in a sterile 50 mL conical centrifuge tube wrapped with aluminum foil. Virus is added at a Multiplicity of Infection (MOI) of 3 and incubated for 1 hour at room temperature with gentle shaking. […] Cells are spun down in 50 mL conical centrifuge tubes at 1000 rpm for 10 minutes. Each of the resulting pellets are resuspended in 10 mL of cold (4° C.) membrane buffer (25 mM HEPES, pH 7.4, 140 mM NaCl, 1.2 mM MgCl2, 2.5 mM CaCl2, 10 μG/mL Aprotinin, 10 μG/mL Leupeptin) and Dounce homogenized using 10-12 strokes. […] The resulting pellet is resuspended in cold membrane buffer in a total of ¼ of the original volume by vortexing and aspiration using a syringe and 27 gauge needle. Protein content is determined (Bradford, Bio-Rad Protein Assay). Membranes are aliquoted in microcentrifuge tubes and quick frozen in liquid nitrogen. Store at −80° C. until use. The membrane binding buffer is composed of 25 mM HEPES, pH 7.4, 140 mM NaCl, 1.2 mM MgCl2, 2.5 mM CaCl2, 0.1% BSA. […] The mixture is filtered with Brandel Microplate 96 filter apparatus using 96-well GF/B filter presoaked in 1-% polyethyleneimine (Sigma). The filter is washed (4 times with a total of 1 mL per well) with cold wash buffer consisting of 20 mM HEPES, pH 7.4, 5 mM MgCl2. […] 100 μl of Wallac Optiphase Supermix scintillation fluid is added to each well. The top is sealed and the plates are shaken to insure that the filters are thoroughly soaked with fluid. […] Dose-response curves are fitted by […] analyses and IC50 values are calculated using ExcelFit.

Where [1] appears, read: at 10 μM, [125I]NDP-α-MSH displacement.

Where two headings read alike, the source gives them in different places.

T1 sequence (P32245 whole entry): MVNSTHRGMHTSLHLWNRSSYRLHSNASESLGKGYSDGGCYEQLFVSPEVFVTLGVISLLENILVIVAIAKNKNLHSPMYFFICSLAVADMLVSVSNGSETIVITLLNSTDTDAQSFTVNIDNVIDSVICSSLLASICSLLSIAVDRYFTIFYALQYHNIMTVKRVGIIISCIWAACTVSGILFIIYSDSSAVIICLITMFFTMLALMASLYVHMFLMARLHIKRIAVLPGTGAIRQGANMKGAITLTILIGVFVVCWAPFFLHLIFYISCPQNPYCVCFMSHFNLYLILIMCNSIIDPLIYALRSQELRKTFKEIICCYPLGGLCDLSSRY

As a reminder, the IC50 is the concentration that inhibits the measured activity by half. On to `N[C@@H](Cc1ccc(-c2c(Cl)cccc2Cl)cc1)C(=O)N1CCN(Cc2cccc(Cl)c2Cl)CC1` [Example 324], for which the IC50 was in the range of 1500 to 3000 nM. Besides, under setting [1], the inhibition at 10 µM lay within 91 to 100%.
The like results for `N[C@@H](Cc1ccc(OCc2ccccc2)cc1)C(=O)N1CCN(Cc2ccccc2C(F)(F)F)CC1` [Example 94] were, in that order, 1500 to 3000 nM and 91 to 100%.
For `N[C@@H](Cc1ccc(OCc2ccccc2)cc1)C(=O)N1CCCN(Cc2c(F)cccc2Cl)CC1` [Example 58] the same measures were more than 3000 nM and 35 to 70%.
With `Cc1ccsc1CN1CCN(C(=O)[C@@H](N)Cc2ccc(OCc3ccccc3)cc2)CC1` [Example 128], the IC50 was more than 3000 nM. For the same compound, under setting [1], the inhibition at 10 µM was in the range of 35 to 70%.
The like results for `N[C@@H](Cc1ccc(OCc2ccccc2)cc1)C(=O)N1CCN(Cc2ccc(N(c3ccccc3)c3ccccc3)cc2)CC1` [Example 91] were, in that order, less than 1500 nM and 91 to 100%.
For `CCOc1ccc(COc2ccc(C[C@H](N)C(=O)N3CCN(Cc4cccc(Cl)c4Cl)CC3)cc2)cc1` [Example 209] the same measures were 1500 to 3000 nM and 91 to 100%.
Take `N[C@@H](Cc1ccc(-c2ccc(Cl)c(Cl)c2)cc1)C(=O)N1CCN(Cc2cccc(Cl)c2Cl)CC1` [Example 294]: the IC50 was less than 1500 nM. Under setting [1], the inhibition at 10 µM is 91 to 100%.
The like results for `N[C@@H](Cc1ccc(OCc2ccccc2)cc1)C(=O)N1CCCN(Cc2cc(F)ccc2F)CC1` [Example 66] were, in that order, more than 3000 nM and 35 to 70%.
Regarding `CCN(CCOc1ccc(C[C@H](N)C(=O)N2CCN(Cc3cccc(Cl)c3Cl)CC2)cc1)c1cccc(C)c1` [Example 282], the concentration for half-maximal inhibition (IC50) is less than 1500 nM. For the same compound, under setting [1], the “Displacement Rate (%) (at 10 μM)” value is “+++ (+++ = 91-100)”.
The like results for `COc1ccc(-c2ccc(C[C@H](N)C(=O)N3CCN(Cc4cccc(Cl)c4Cl)CC3)cc2)cc1OC` [Example 331] were, in that order, more than 3000 nM and “+ (+ = 35-70)”.
For `N[C@@H](Cc1ccc(OCc2ccccc2)cc1)C(=O)N1CCN(Cc2cccc(F)c2F)CC1` [Example 120], the IC50 was more than 3000 nM. The inhibition at 10 µM under setting [1] is 71 to 90%.
For `N[C@@H](Cc1ccc(OCc2ccccc2)cc1)C(=O)N1CCN(Cc2ccc(C(F)(F)F)cc2)CC1` [Example 138] the same measures were more than 3000 nM and 35 to 70%.
Regarding `N[C@@H](Cc1ccc(OCc2ccccc2)cc1)C(=O)N1CCCN(C2CCc3ccccc3C2)CC1` (stereo partly drawn) [Example 30], the inhibition at 10 µM was 71 to 90% and the IC50 was more than 3000 nM.
On to `N[C@@H](Cc1ccc(OCc2ccccc2)cc1)C(=O)N1CCN(Cc2cccc(Cl)c2Cl)CC1` [Example 178], for which the IC50 was less than 1500 nM. Also, the “Displacement Rate (%) (at 10 μM)” value under setting [1] is recorded as “+++ (+++ = 91-100)”.
Turning to `N[C@@H](Cc1ccc(OCc2ccccc2)cc1)C(=O)N1CCN(Cc2ccc(C(F)(F)F)cc2C(F)(F)F)CC1` [Example 98], the IC50 is 1500 to 3000 nM. Under setting [1], the inhibition at 10 µM was in the range of 91 to 100%.
Regarding `Cc1ccccc1Oc1ccc(C[C@H](N)C(=O)N2CCN(Cc3cccc(Cl)c3Cl)CC2)cc1` [Example 348], the IC50 fell in the range of 1500 to 3000 nM.
Turning to `Cc1ccccc1-c1ccc(C[C@H](N)C(=O)N2CCN(Cc3cccc(Cl)c3Cl)CC2)cc1` [Example 313], the IC50 lay in the range of 1500 to 3000 nM. Under setting [1], the inhibition at 10 µM was in the range of 91 to 100%.
For `N[C@@H](Cc1ccc(OCc2ccccc2)cc1)C(=O)N1CCN(Cc2ccccc2Sc2ccc(Cl)cc2)CC1` [Example 82] the same measures were less than 1500 nM and 91 to 100%.
Turning to `N[C@@H](Cc1ccc(-c2cc3ccccc3s2)cc1)C(=O)N1CCN(Cc2cccc(Cl)c2Cl)CC1` [Example 338], the inhibition at 10 µM was in the range of 91 to 100% and the IC50 is less than 1500 nM.
For `COc1cccc(COc2ccc(C[C@H](N)C(=O)N3CCN(Cc4cccc(Cl)c4Cl)CC3)cc2)c1` [Example 203], the IC50 is 1500 to 3000 nM. The “Displacement Rate (%) (at 10 μM)” value under setting [1] was “+++ (+++ = 91-100)”.
On to `COc1ccc(OC)c(-c2ccc(C[C@H](N)C(=O)N3CCN(Cc4cccc(Cl)c4Cl)CC3)cc2)c1` [Example 320], for which the IC50 is 1500 to 3000 nM. The “Displacement Rate (%) (at 10 μM)” value under setting [1] is recorded as “+++ (+++ = 91-100)”.
The like results for `N[C@@H](Cc1ccc(OCCc2ccccc2OCc2ccccc2)cc1)C(=O)N1CCN(Cc2cccc(Cl)c2Cl)CC1` [Example 252] were, in that order, less than 1500 nM and “+++ (+++ = 91-100)”.
For `O=C([C@H](Cc1ccc(OCc2ccccc2)cc1)NCCN1CCCCC1)N1CCN(Cc2cccc(Cl)c2Cl)CC1` [Example 176], the IC50 was less than 1500 nM. Moreover, the inhibition at 10 µM under setting [1] is 91 to 100%.
For `N[C@@H](Cc1ccc(OCc2ccccc2)cc1)C(=O)N1CCCN(Cc2ccc(Cl)c(Cl)c2)CC1` [Example 17] the same measures were 1500 to 3000 nM and 91 to 100%.
In the case of `N[C@@H](Cc1ccc(OCc2ccc(Cl)cc2Cl)cc1)C(=O)N1CCN(Cc2cccc(Cl)c2Cl)CC1` [Example 200], the IC50 is less than 1500 nM. Under setting [1], the “Displacement Rate (%) (at 10 μM)” value is “+++ (+++ = 91-100)”.
As to `N[C@@H](Cc1ccc(OCc2ccccc2)cc1)C(=O)N1CCCN(CC2CCCCC2)CC1` [Example 53], the IC50 was more than 3000 nM. For the same compound, the inhibition at 10 µM under setting [1] fell in the range of 35 to 70%.
The like results for `CCOc1ccc(-c2ccc(C[C@H](N)C(=O)N3CCN(Cc4cccc(Cl)c4Cl)CC3)cc2)cc1` [Example 310] were, in that order, less than 1500 nM and 91 to 100%.
With `CC(C)(C)c1ccc(-c2ccc(C[C@H](N)C(=O)N3CCN(Cc4cccc(Cl)c4Cl)CC3)cc2)cc1` [Example 305], the IC50 was less than 1500 nM. In addition, the inhibition at 10 µM under setting [1] is 91 to 100%.
Consider `N[C@@H](Cc1ccc(OCc2ccccc2)cc1)C(=O)N1CCCN(Cc2ccc(Cl)c([N+](=O)[O-])c2)CC1` [Example 64], for which the inhibition at 10 µM was 35 to 70% and the IC50 was more than 3000 nM.
Regarding `N[C@@H](Cc1ccc(OCc2ccccc2)cc1)C(=O)N1CCCN(Cc2cn(Cc3ccccc3)c3ccccc23)CC1` [Example 9], the IC50 is less than 1500 nM. Under setting [1], the inhibition at 10 µM was 91 to 100%.
As to `N[C@@H](Cc1ccc(OCc2ccccc2)cc1)C(=O)N1CCCN(CC(c2ccccc2)c2ccccc2)CC1` [Example 23], the IC50 is more than 3000 nM. In addition, the inhibition at 10 µM under setting [1] lay in the range of 91 to 100%.
For `N[C@@H](Cc1ccc(OCc2ccccc2)cc1)C(=O)N1CCN(Cc2cccc3ccccc23)CC1` [Example 127], the inhibition at 10 µM under setting [1] was in the range of 71 to 90%.
Consider `COc1ccc(COc2ccc(C[C@H](N)C(=O)N3CCN(Cc4cccc(Cl)c4Cl)CC3)cc2)cc1OC` [Example 234], for which the IC50 was more than 3000 nM. Besides, the “Displacement Rate (%) (at 10 μM)” value under setting [1] was “+ (+ = 35-70)”.
For `COc1ccccc1COc1ccc(C[C@H](N)C(=O)N2CCN(Cc3cccc(Cl)c3Cl)CC2)cc1` [Example 231] the same measures were more than 3000 nM and “++ (++ = 71-90)”.
On to `N[C@@H](Cc1ccc(OCc2ccccc2)cc1)C(=O)N1CCCN(Cc2ccc3ccccc3c2)CC1` [Example 51], for which the concentration for half-maximal inhibition (IC50) was more than 3000 nM. The inhibition at 10 µM under setting [1] fell in the range of 35 to 70%.
Regarding `COc1cccc(COc2ccc(C[C@H](N)C(=O)N3CCN(Cc4cccc(Cl)c4Cl)CC3)cc2)c1OC` [Example 233], the IC50 is more than 3000 nM. The “Displacement Rate (%) (at 10 μM)” value under setting [1] is “+ (+ = 35-70)”.
Regarding `N[C@@H](Cc1ccc(OCc2ccccc2)cc1)C(=O)N1CCCN(Cc2cnc3ccccc3c2)CC1` [Example 62], the half-inhibitory concentration (IC50) was more than 3000 nM. Further, the inhibition at 10 µM under setting [1] was in the range of 35 to 70%.
Turning to `N[C@@H](Cc1ccc(OCCc2ccc([N+](=O)[O-])cc2)cc1)C(=O)N1CCN(Cc2cccc(Cl)c2Cl)CC1` [Example 258], the half-inhibitory concentration (IC50) was more than 3000 nM. Also, under setting [1], the “Displacement Rate (%) (at 10 μM)” value is given as “++ (++ = 71-90)”.
For `CCCCOc1ccc(COc2ccc(C[C@H](N)C(=O)N3CCN(Cc4cccc(Cl)c4Cl)CC3)cc2)cc1` [Example 230] the same measures were 1500 to 3000 nM and “++ (++ = 71-90)”.
As to `COc1cc(OC)c(CN2CCN(C(=O)[C@@H](N)Cc3ccc(OCc4ccccc4)cc3)CC2)cc1Br` [Example 130], the IC50 is more than 3000 nM. Further, the inhibition at 10 µM under setting [1] lay within 35 to 70%.
The like results for `COc1cc(CN2CCN(C(=O)[C@@H](N)Cc3ccc(OCc4ccccc4)cc3)CC2)cc(Br)c1OC` [Example 121] were, in that order, 1500 to 3000 nM and 71 to 90%.
The like results for `N[C@@H](Cc1ccc(OCc2ccccc2)cc1)C(=O)N1CCN(Cc2cc3c(cc2[N+](=O)[O-])OCO3)CC1` [Example 154] were, in that order, more than 3000 nM and 35 to 70%.
For `N[C@@H](Cc1ccc(OCc2ccccc2)cc1)C(=O)N1CCN(CCCc2ccccc2)CC1` [Example 147] the same measures were more than 3000 nM and 35 to 70%.
